The subject of one data set is adult male Swiss mice. Kind of data set: Antispermatogenic screen: single gavage dose to male mice, testes weight and Spermatogenic Index at 72 h. The class given is in vivo. The conditions noted are these: day 3 (72 h). The method, then:
The compounds of the invention were tested in mice for their effects on spermatogenesis three days after a single oral dose by the procedure described in Cook et al (1995) below. Compounds active in this test have been shown also to be anti-fertility compounds.
Compounds were screened for antispermatogenic activity by dosing male mice on day 1 with a gavage dose of control vehicle, positive control (compound 1) or compound of the invention. At 72 h after dosing, animals were killed and the testes were excised, trimmed of fat, and weighed. One testis was examined histologically and rated for spermatogenic potential using the Spermatogenic Index (J. M. Whitsett, P. F. Noden, J. Cherry and A. D. Lawton, J. Reprod. Fertil., 72, 277 (1984), which is a semiquantitative estimate of the sperm producing ability of the testes The index is based on histological appearance of the spermatogenic cells in the seminiferous tubules. A scale of 1 to 6 is used with 5 to 6 being the normal status. A second assessment was based on the weight of the testes.
Tables 1 and 2 show pertinent biological results in terms of the change in testes weight (TW) and spermatogenic index (SI) relative to a control containing only the administration vehicle, but no indenopyridine. In Tables 1 and 2, R^3 and R^4 refer to structures Ib, where R^3 is in the para position; R^1 is ethyl; R^2 is methyl; and R^5 is hydrogen.

For another data set, the system named is testes. Kind of data set: Antispermatogenic activity after a single oral dose to rats. Type of data set: in vivo. Particulars: single oral dose of 30 mg/kg. From the text: Spermatids became pycnotic, occasionally forming multinucleated associations. Sertoli cells appear to be cytologically normal. It appears that compound 1 targets spermatids or the Sertoli cell associated with these spermatids because histologic changes are observed in these spermatids first.

Another data set relates to mice. Briefly: Lethargy and sedation in mice. Type of data set: in vivo. An excerpt: Lethargy and sedation are obviously undesirable side effects in contraceptive agents. In contrast to the lethargy and sedation observed with compound 1, the compounds of the present invention produce minimal lethargy.
The subject of a further data set is spermatogenesis. Particulars: oral administration to animals; cited from earlier work.
Where [1] appears, read: Table 2, 30 mg/kg single gavage dose, vehicle 1% Tween20 in water.
The mark [2] stands for this setting: racemic compounds, 30 mg/kg single gavage dose, vehicle 90% water, 7% Tween20, 3% ethanol.
The mark [3] stands for this setting: racemic compounds, 10 mg/kg single gavage dose, vehicle 90% water, 7% Tween20, 3% ethanol.
[4] abbreviates: racemic compounds, 1 mg/kg single gavage dose, vehicle 90% water, 7% Tween20, 3% ethanol.
The mark [5] stands for this setting: racemic compounds, 3 mg/kg single gavage dose, vehicle 90% water, 7% Tween20, 3% ethanol.

SMILES strings stand for the structures. Marks after values point to notes of the source that are not given here.

Turning to `CCN1CC[C@@H]2[C@@H](c3ccc(C)cc3)c3cc(C)ccc3[C@@H]2C1` (racemic) [Compound 1, (4aRS,5SR,9bRS)-2-ethyl-2,3,4,4a,5,9b-hexahydro-7-methyl-5-(4-methylphenyl)-1H-indeno[1,2-c]pyridine], in the data set on adult male Swiss mice (setting [1]), the “SI change (%) (Spermatogenic Index, % change from vehicle control)” value is listed as −61%* and the “TW change (%) (testes weight, % change from vehicle control)” value (“TW change (%)” for short) is reported as −24%*. Besides, in the data set on adult male Swiss mice (setting [2]), the “SI change (%) (Spermatogenic Index, % change from vehicle control)” value is on record as −55%* and the “TW change (%)” value is 19%*. The Testis histology result with testes is listed as “Degenerative changes in the seminiferous tubules”. Moreover, the “Effect on weights of the testes” value in the data set on testes (within 24 h) is given as “drastically reducing the weights of the testes”. Besides, the Lethargy entry with mice (30 mg/kg given subcutaneously) is recorded as “extreme lethargy”. For the same compound, in the data set on mice (oral dose of 30 mg/kg), the Lethargy and sedation entry was “some lethargy and sedation”. Besides, the Inhibition of spermatogenesis entry in the data set on spermatogenesis is listed as “reversible inhibition of spermatogenesis”.
For the compound `CCN1CC[C@@H]2[C@@H](c3ccc(C(=O)O)cc3)c3cc(C)ccc3[C@@H]2C1.Cl` (racemic) [Compound 2, (4aRS,5SR,9bRS)-2-Ethyl-2,3,4,4a,5,9b-hexahydro-7-methyl-5-(4-carboxyphenyl)-1H-indeno[1,2-c]pyridine Hydrochloride], the melting point is 280 °C (dec.). For the same compound, in the data set with adult male Swiss mice (setting [3]), the “SI change (%) (Spermatogenic Index, % change from vehicle control)” value is −24%* and the “TW change (%)” value came out at 2%. Further, in the data set with adult male Swiss mice (setting [2]), the “SI change (%) (Spermatogenic Index, % change from vehicle control)” value is reported as −52%* and the “TW change (%)” value was −7%.
On to `CCN1CC[C@@H]2[C@@H](c3ccc(C(=O)OC)cc3)c3cc(C)c(I)cc3[C@@H]2C1.Cl` (racemic) [Compound 18, (4aRS,5SR,9bRS)-2-Ethyl-2,3,4,4a,5,9b-hexahydro-8-iodo-7-methyl-5-(4-carbomethoxyphenyl)-1H-indeno[1,2-c]pyridine Hydrochloride], for which the melting point was > 190 °C (dec.). In addition, in the data set with adult male Swiss mice (setting [4]), the “SI change (%) (Spermatogenic Index, % change from vehicle control)” value is recorded as −57%* and the “TW change (%)” value is −16%. Also, in the data set on adult male Swiss mice (setting [5]), the “SI change (%) (Spermatogenic Index, % change from vehicle control)” value is listed as −69%* and the “TW change (%)” value is −27%*. Moreover, in the data set on adult male Swiss mice (setting [3]), the “SI change (%) (Spermatogenic Index, % change from vehicle control)” value is −74%* and the “TW change (%)” value is on record as −36%*.
`CCN1CC[C@@H]2[C@@H](c3ccc(C(=O)O)cc3)c3cc(C)c(Br)cc3[C@@H]2C1.Cl` (racemic) [Compound 19, (4aRS,5SR,9bRS)-2-Ethyl-8-Bromo-7-Methyl-2,3,4,4a,5,9b-Hexahydro-5-(4-carboxylphenyl)-1H-Indeno[1,2-c]pyridine Hydrochloride] gave a melting point of 169.6 to 170.3 °C. Further, in the data set with adult male Swiss mice (setting [5]), the “SI change (%) (Spermatogenic Index, % change from vehicle control)” value is recorded as −69%* and the “TW change (%)” value is recorded as −8%. In the data set with adult male Swiss mice (setting [3]), the “SI change (%) (Spermatogenic Index, % change from vehicle control)” value is −71%* and the “TW change (%)” value is recorded as −28%*. In the data set with adult male Swiss mice (setting [2]), the “SI change (%) (Spermatogenic Index, % change from vehicle control)” value was −72%* and the “TW change (%)” value was −39%*.

These data come from patent US8193213B2, “Spermicidal and/or antifungal composition and methods of using the same” (priority 2003, dated 2012).
